Laboratory results from paper PMC10636063, “Progesterone activation of β1-containing BK channels involves two binding sites” (Nature Communications, 2023).
Where “and” joins values, the source holds several entries; their conditions need not be identical. Equal values may be shown once. Read-outs that look alike come from different tables or passages of the source.

Tests used:
[1] = target: T1, BK β1 subunit (KCNMB1 product) (Rattus norvegicus, UniProt P97678); experiment: Thermal unfolding (microscale thermophoresis, Prometheus) of purified wt β1; type: binding
T1 construct: FLAG (DYKDDDDK); made in house; host or cells: CHO cells, transient transfection, anti-flag immunoprecipitation
T1 sequence (P97678 1-191): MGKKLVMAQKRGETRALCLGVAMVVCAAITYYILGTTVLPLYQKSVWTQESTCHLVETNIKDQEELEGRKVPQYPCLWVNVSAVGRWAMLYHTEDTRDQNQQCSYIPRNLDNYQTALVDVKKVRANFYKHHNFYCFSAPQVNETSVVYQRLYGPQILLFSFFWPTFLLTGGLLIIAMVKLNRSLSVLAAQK
Text: BK channel-forming slo1 cDNA (cbv1 isoform; AY330293) was cloned from rat cerebral artery SM cells, and inserted into pcDNA3.1 vector as described. BK β1 cDNA (KCNMB1 product; NP_011452; FJ154955) were isolated from rat cerebral artery SM cells and cloned as described. β4 cDNA (KCNMB4; NP_055320; AY028605) were generously provided by Dr. Ligia Toro. CHO cells were transiently transfected with cbv1 ± β1-, or β4-carrying pcDNA3.1 using X-tremeGENE HP (Sigma-Aldrich). Mutations to β1/4 cDNAs were conducted by Genscript, with sequences being confirmed to be >99% identical to KCNMB1 product; NP_011452 or β4 KCNMB4; NP_055320; respectively. β1/4 and mutant constructs were flag-tagged (DYKDDDDK-tag) by Genscript services for subsequent immunoprecipitation and use in microscale thermophoresis studies.
Wt β1, wt β4 and mutant constructs were purified by immunoprecipitation using Dynabeads Protein G Kit (10007D by Invitrogen) and following the manufacturer’s instructions. Rabbit polyclonal anti-flag antibody (10 µg; Abcam, Cat# ab205606, RRID:AB_2916341) was cross-linked with dynabeads. Transfected CHO cell lysate supernatant was divided into aliquots containing […] per column. Following precipitation, kit instructions for non-denaturing elutions were followed; one elution of 30 µl was collected for each column, and pH was adjusted to 7.5 using UltraPure 1 M Tris-HCI buffer pH 7.5 (cat# 15567027 by Fisher Scientific). PROG stock or vehicle control (DMSO) was added to the eluate to reach PROG final concentrations (0.004-40 µM), all dissolved within the same concentration of DMSO. Glass capillaries were prepared and loaded in triplicates into Prometheus (Nanotemper) and heated from 15° to 95 °C at a rate of 1°/min, the largest thermal scale available to run in the Nanotemper PR.therm-control software. The unfolding profile of a protein is a plot of its fluorescence signal against temperature. The protein is heated at a defined ramp over a specified temperature range. During the heating process, fluorescence is recorded at 330 and 350 nm. The resulting fluorescence ratio change is then analyzed for onset and inflection points. The temperature of onset and inflection is determined using built-in analysis function in Nanotemper PR.therm-control software. The onset of unfolding or aggregation is the temperature at which the channel conformation (unfolding or aggregation) process first starts. […] Onset and inflection points were validated by comparing the first-derivative variations between technical triplicates (high degrees of variations in the first derivative are shown in Supplementary Fig. 1b, c). CRC data obtained from microscale thermophoresis experiments were fitted to a Boltzmann function of the type: y=A1−A2/1+e^x−x0+A2 using Origin 2020 software (OriginLab; OriginLab Corporation).

[2] = system: de-endothelialized, pressurized MCA segments (C57BL/6); experiment: Cerebral artery diameter in vitro, de-endothelialized pressurized MCA segments; set-up: species or system mouse
Text: Eight-12 week-old C57BL/6J and KCNMB1^−/− on C57BL/6 background mice of both sexes were deeply anesthetized with isoflurane via inhalation in a tightly sealed jar. Resistance size MCAs (~100 μm in external diameter) were dissected out of the mouse brains after animal euthanasia with sharp scissors. For de-endothelialized records, the endothelium was removed by passing an air bubble into the vessel lumen for 90 s[30]. This method has been consistently used by our group and validated using endothelium-dependent versus endothelium-independent vasodilators[16],[26]. Arteries were cannulated as previously described by our group[26],[40]. MCAs were cut into 5 to 10 mm-long segments under a microscope (Nikon SMZ645). The segment was cannulated at each end, and the artery exterior was continuously perfused with physiologic sodium saline (PSS) of the following composition (mM): 119 NaCl, 4.7 KCl, 1.2 KH2PO4, 1.6 CaCl2, 1.2 MgSO4, 0.023 EDTA, 11 glucose, 24 NaHCO3, pH=7.4. PSS was continuously bubbled with an O2/CO2/N2 (21/5/74%) gas mixture and maintained at 35–37 °C. The artery external wall diameter was measured using the automatic edge-detection function of lonWizard software (lonOptix) via Sanyo VCB-3512T camera (Sanyo Electric Co.). Arteries were first incubated at an intravascular pressure of 10 mm Hg for 10 min. Then intravascular pressure was increased to 60 mmHg and held steady throughout the experiment to induce myogenic tone development and maintenance[19],[30],[51]. Each artery segment was exposed to PROG, PROG-oxime (in presence and absence of 1 µM paxilline) only once to avoid development of desensitization during repeated applications of PROG-containing solution. To determine arterial viability, arterial contractility was probed with a high KCl solution at the end of each experiment. The high KCl solution was composed of the following composition (mM): 63.7 NaCl, 60 KCl, 1.2 KH2PO4, 1.2 MgSO4, 0.023 EDTA, 11 glucose, 24 NaHCO3, 1.6 CaCl2, pH=7.4. Like PSS, the high-KCl solution was continuously bubbled with O2/CO2/N2 (21/5/74%) gas mixture and maintained at 35–37 °C.

[3] = system: pial arteries branching out of the MCA (C57BL/6J); experiment: Cerebral artery diameter through cranial window in vivo; set-up: species or system mouse
Method: Eight-12 week-old male and female C57BL/6J mice were anesthetized with a mixture of xylazine/ketamine (12/100 mg per kg) and kept anesthetized for the duration of the experiment with subsequent ketamine doses (50 mg/kg of weight) as needed. A catheter was inserted into the carotid artery so that the infusion went straight to the brain rather than towards the thoracic cavity. An area of the skull was cleared of tissue and thinned to expose the branching arteries originating from the MCA on the side the catheter was inserted, above the zygomatic arch, between the ear and eye of the skull[19],[34]. The exposed arteries branching out from the MCA were monitored using a Leica MC170 HD microscope with a mounted camera (Leica M125 C) connected to a computer monitor. Drugs were diluted to their final concentration in sodium saline (0.9% NaCl) and administered via catheter at 0.1 ml/25 g of weight. Cranial window images before and after drug administration were acquired every 60 seconds for subsequent analysis.

[4] = Δ onset to inflection vs concentration

CC(=O)[C@H]1CC[C@H]2[C@@H]3CCC4=CC(=O)CC[C@]4(C)[C@H]3CC[C@]12C [PROG, Progesterone]
concentrations optimal to bind β1 as determined by MST [1]: 4 to 10 µM | delta (Δ) of onset to inflection point ([1]; 0.004 µM PROG, individual records (Fig 1B)): 5.26 and 13.2518 and 6.093 and 5.155 and 14.4223 and 5.701 and 4.973 and 10.2833 and 5.781 and 6.3298 and 7.116 | delta (Δ) of onset to inflection point ([1]; 0.04 µM PROG, individual records (Fig 1B)): 5.943 and 2.008 and 8.93 and 4.708 and 3.29 and 2.039 and 5.415 and 2.123 and 6.078 and 9.405 and 14.8911 and 5.538 | delta (Δ) of onset to inflection point ([1]; 0.4 µM PROG, individual records (Fig 1B)): 3.821 and 6.41 and 2.29 and 0.9082 and 1.393 and 3.976 and 4.647 and 6.669 and 3.779 and 6.772 | delta (Δ) of onset to inflection point ([1]; 1.3 µM PROG, individual records (Fig 1B)): 10.9265 and 4.989 and 3.478 and 3.054 and 2.195 and 4.0816 | delta (Δ) of onset to inflection point ([1]; 4 µM PROG, individual records (Fig 1B)): 4.355 and 17.5013 and 19.981 and 4.864 and 5.088 and 8.156 and 15.523 and 3.088 and 7.882 and 12.3542 and 0.9184 and 8.919 and 6.947 and 9.668 | delta (Δ) of onset to inflection point ([1]; 10 µM PROG, individual records (Fig 1B)): 12.73 and 36.72 and 4.56 and 4.587 and 4.664 and 11.45 and 5.307 and 5.645 and 4.368 and 3.818 | delta (Δ) of onset to inflection point ([1]; 10 μM PROG, individual records (Fig 1C, SFig1A)): 9.668 and 4.355 and 17.5013 and 19.981 and 4.864 and 5.088 and 8.156 and 15.523 and 3.088 and 7.882 and 12.3542 and 0.9184 and 8.919 and 6.947 | delta (Δ) of onset to inflection point ([1]; 40 µM PROG, individual records (Fig 1B)): 6.851 and 14.1513 and 13.0079 and 8.574 and 9.969 and 3.1593 and 5.59 and 5.656 | effect on thermal unfolding / binding ([1]; vs DMSO): decreases the difference in delta between the onset inflection events | high-affinity binding process: concentration at maximum [1, 4]: 0.4 to 1 µM | low-affinity binding process: concentration at maximum [1, 4]: 10 µM | EC50 ([1]; Δ onset to inflection vs concentration, read-out: high-affinity binding process: 50% value): 40 nM | EC50 ([1]; Δ onset to inflection vs concentration, read-out: low-affinity binding process: 50% value): ~2200 nM | vasoactive response of MCA segments ([2]; 10 μM in the presence of 1 μM paxilline): lost | vasoactive response of MCA segments ([2]; 10 μM, male and female mice): dilated MCA segments | percent changes in MCA diameter ([2]; male mice, 10 μM PROG, individual arterial segments): 4.2471% and 1.678% and 1.882% and 1.946% and 2.105% and 8.38% and 2.776% and 5.128% and 1.929% and 4.348% | in vivo action on MCA branches ([3]; 10 μM infused via carotid artery, both sexes): vasodilation | artery diameter, normalized to time 0 ([3]; Fig 7C, time 4, individual replicates, male mice): 1.09 (2×) and 1.035 and 1.058 and 0.9438 | artery diameter, normalized to time 0 ([3]; Fig 7C, time 5, individual replicates, male mice): 1.016 and 1.1 and 0.9912 and 1.082 and 0.9491 | artery diameter, normalized to time 0 ([3]; Fig 7C, time 6, individual replicates, male mice): 1.051 and 1.116 and 1.012 and 1.08 and 1.037 | artery diameter, normalized to time 0 ([3]; Fig 7C, time 7, individual replicates, male mice): 1.112 and 1.049 and 1.05 and 1.107 and 1.058 | artery diameter, normalized to time 0 ([3]; Fig 7C, time 8, individual replicates, male mice): 1.011 and 1.1193 and 1.034 and 1.1 and 1.095 | artery diameter, normalized to time 0 ([3]; Fig 7C, time 9, individual replicates, male mice): 1.079 and 1.105 and 1.031 and 1.086 and 1.089 | artery diameter, normalized to time 0 ([3]; Fig 7C, time 10, individual replicates, male mice): 1.09 and 1.053 and 0.9685 and 1.068 and 1.048 | artery diameter, normalized to time 0 ([3]; Fig 7C, time 11, individual replicates, male mice): 1.108 and 1.043 and 1.018 and 1.059 and 1.07 | artery diameter, normalized to time 0 ([3]; Fig 7C, time 12, individual replicates, male mice): 0.9973 and 1.002 and 1.105 and 1.107 and 1.084 | artery diameter, normalized to time 0 ([3]; Fig 7C, time 13, individual replicates, male mice): 1.13 and 1.0049 and 1.077 and 1.135 and 1.0321 | artery diameter, normalized to time 0 ([3]; Fig 7D, time 4, individual replicates, female mice): 1.137 and 1.058 and 0.95 and 1.071 and 1.184 | artery diameter, normalized to time 0 ([3]; Fig 7D, time 5, individual replicates, female mice): 0.9598 and 1.079 and 0.97 and 0.997 and 1.229 | artery diameter, normalized to time 0 ([3]; Fig 7D, time 6, individual replicates, female mice): 1.069 and 1.14 and 1.01 and 1.116 and 1.159 | artery diameter, normalized to time 0 ([3]; Fig 7D, time 7, individual replicates, female mice): 1.131 and 1.157 and 1.04 and 1.012 and 1.149 | artery diameter, normalized to time 0 ([3]; Fig 7D, time 8, individual replicates, female mice): 1.128 and 1.058 and 1.05 and 1.074 and 1.104 | artery diameter, normalized to time 0 ([3]; Fig 7D, time 9, individual replicates, female mice): 1.1 and 1.083 and 1.05 and 1.009 and 1.17 | artery diameter, normalized to time 0 ([3]; Fig 7D, time 10, individual replicates, female mice): 1.137 and 1.135 and 1.10 and 1.112 and 1.096 | artery diameter, normalized to time 0 ([3]; Fig 7D, time 11, individual replicates, female mice): 1.0383 and 1.014 and 1.12 and 1.119 and 1.133 | artery diameter, normalized to time 0 ([3]; Fig 7D, time 12, individual replicates, female mice): 1.097 and 0.9908 and 1.08 and 1.129 and 1.16 | artery diameter, normalized to time 0 ([3]; Fig 7D, time 13, individual replicates, female mice): 1.0971 and 1.058 and 1.25 and 1.0807 and 1.024 | artery diameter, normalized (PROG vs oxime comparison) ([3]; Fig 7F, same values as Fig 7D time 7, individual replicates, female mice): 1.043
